Patent US20130230571A1, “MACROCYCLIC LACTONE COMPOUNDS AND METHODS FOR THEIR USE” (Elixir Medical Corporation, priority 2010, published 2013)
Entries after “also recorded” stand apart in the source; their conditions may differ.

How the values were obtained:
MMP-9 = MMP-9 production by LPS-activated macrophages, ELISA; format: cell-based; conditions: 10 nM
Protocol: (§1) In cell culture studies, macrophages were activated to secrete cytokines such as MMP-9 and MCP-1 by treating the cells to E Coli lippopolysaccharide (LPS). Inhibition of these cytokines upon treatment of the activated macrophages with myolimus and rapamycin with 10 nM concentration was tested using ELISA assay.

MCP-1 = MCP-1 production by LPS-activated macrophages, ELISA; format: cell-based; conditions: 10 nM
Protocol: as §1

human smooth muscle cell = experiment: in vitro human smooth muscle cell culture testing, incorporated thymidine; format: cell-based; conditions: exposure for 8 hours; human smooth muscle cells; read-out: IC50 (incorporated thymidine, anti-proliferative)
Protocol: The amounts of incorporated thymidine for samples of myolimus of varying concentrations (0.0001, 0.001, 0.01, 0.1, and 1 μM) and of rapamycin of varying concentrations (0.0001, 0.001, 0.01, 0.1, and 1 μM) were measured after exposure for 8 hours (as shown in FIG. 1). The IC50 of both myolimus and rapamycin was 0.1 nM indicating potent anti-proliferative properties.

[1] = cited from earlier work

Row | SMILES | production of the cytokine MMP-9 (MMP-9) | production of the cytokine MMP-9 (MMP-9; listed as Myolimus) | production of cytokine MCP-1 (MCP-1) | production of cytokine MCP-1 (MCP-1; listed as Myolimus) | IC50 (human smooth muscle cell) | production of the cytokine MMP-9 (MMP-9; listed as Rapamycin) | solubility in water [1]
1 | CO[C@H]1C[C@@H]2CC[C@@H](C)[C@@](O)(O2)C(=O)C(=O)N2CCCC[C@H]2C(=O)O[C@H]([C@H](C)C[C@@H]2CC[C@@H](O)[C@H](OC)C2)CC[C@H](C)/C=C(\C)[C@@H](O)[C@@H](OC)C(=O)[C@H](C)C[C@H](C)/C=C/C=C/C=C/1C [myolimus, 32-deoxo-rapamycin] | inhibiting production of MMP-9 | reduced the production | inhibiting the production | reduced the production | 0.1 nM | – | –
2 | CO[C@H]1C[C@@H]2CC[C@@H](C)[C@@](O)(O2)C(=O)C(=O)N2CCCC[C@H]2C(=O)O[C@H]([C@H](C)C[C@@H]2CC[C@@H](O)[C@H](OC)C2)CC(=O)[C@H](C)/C=C(\C)[C@@H](O)[C@@H](OC)C(=O)[C@H](C)C[C@H](C)/C=C/C=C/C=C/1C [rapamycin, Rapamycin] | increased the production of MMP-9 | – | did not impact the production of MCP-1; also recorded: did not have any impact | – | 0.1 nM | increased the production | very slightly soluble in water
